Assay results from US6001880A, “Alkylenediamine derivative, anti-ulcer drug, and antibacterial drug” (Shiseido Co., Ltd., priority 1997, dated 1999).

system: not listed separately; test: MTT: Cell Damaging and Protecting Effect Test; type: cell-based, rabbit (male Japanese White); conditions: rabbit, gastric corpus mucosa cells, final concentration 10^-4 M, smaller value is better, read-out: MTT: cell damaging rate
Excerpt: MTT: Cell Damaging and Protecting Effect Test
It is confirmed that there is no toxicity in cell level. Those having a toxicity in cell level are inappropriate as an anti-ulcer drug.
A male Japanese White rabbit (2.5 to 3 kg) was anesthetized to death by Nembutal™ and, immediately thereafter, its stomach was removed. The greater curvature of the stomach was incised so as to remove the stomach contents therefrom. After the mucosal surface was washed with HBSS (Hanks' Balanced Salt Solution), the stomach in ice-cooled HBSS was transferred to a laboratory. Then, after the pyloric antrum was removed, the gastric corpus mucosa was separated by a spatula and then minced into 2 to 3 mm^3 pieces in BME (Basal Medium Eagle). Thereafter, these pieces were shaken at 120 to 130 cycles/minute for 15 minutes at 37° C. in BME 60 ml containing 280 U/ml of dispase and 30 to 50 U/ml of collagenase. Here, the concentration of collagenase was appropriately changed for each lot in view of the state of cells. The pieces were washed twice with EBSS (Earle's Balanced Salt Solution) containing 1 mM of EDTA and then shaken in MEM (Minimum Essential Medium) containing 1 mM of EDTA at 37° C. for 5 minutes. Subsequently, they were shaken in the dispase and collagenase having the same concentrations as those mentioned above for 15 minutes so as to remove the supernatant and then further shaken at 37° C. for 50 to 60 minutes at 120 to 130 cycles/minute. Then, after being washed twice with HBSS, Ham F12 containing 2% of Ultrocer G™ was used to attain the concentration of 1×10^6 cells/ml. Thus formed suspension was dispensed in each well of a 96-well plate by 200 μl. The plate was incubated in the atmosphere composed of 5% CO2 and 95% air at 37° C. for three days so as to attain a confluent state and then subjected to MTT assay.
The sample compound was dissolved in DMSO so as to attain a concentration of 10^-2 M and then diluted with HBSS containing 2% of Ultrocer G™ so as to attain a final concentration of 10^-4 M. To each group, which 8 wells were used for, 10 μl of MTT reagent was added immediately after 100 μl of the medium in each well was exchanged for same volume of the resulting solution of the sample compound. After being incubated in an atmosphere composed of 5% CO2 and 95% air at 37° C. for 4 hours, thus formed solution was centrifuged and then its supernatant was discarded. Subsequently, 100 μl of 100% ethanol was added to the residue so as to dissolve MTT formazan. Then, the absorbance (OD: 570 to 630) was measured by a microplate reader. This method utilizes a phenomenon in which MTT is changed to MTT formazan only by mitochondria of living cells so as to change color.
The cell damaging or cell protecting effect of the sample compound at the final concentration of 10^-4 M was expressed as cell damaging rate (%) as follows:
cell damaging rate (%)=(1-(absorbance in sample group/absorbance in control
Accordingly, the smaller value is better in the cell damaging rate.

SMILES	cytotoxicity at 4 h, 100 µM [%]
CCN(CC)CCNC(=O)c1ccc(OCC=C(C)C)nc1 [Example 46]	-3
CC(C)=CCOc1ccc(C(=O)NCCN(C(C)C)C(C)C)cn1 [Example 48]	-13
CC(C)N(CCNC(=O)c1cccc(CN2CCCCC2)c1)C(C)C [Example 66]	12
CC(C)N(CCNC(=O)c1ccc(NC(=O)C(C)(C)C)cc1)C(C)C [Example 69]	35

system: isolated gastric fundic gland; test: CAP: Acid Secretion Inhibition Test In Vitro ([14C]-aminopyrine uptake); type: cell-based, rabbit (male Japanese White); conditions: Oryctolagus cuniculus; final concentration 10^-5 M; histamine 10^-5 M stimulation; read-out: CAP: acid secretion inhibitory rate
Description: CAP: Acid Secretion Inhibition Test In Vitro
The acid secretion inhibitory activity in a cell level is studied. It can also be used for studying the mechanism of the effect.
First, an isolated gastric fundic gland sample was prepared. Namely, a male Japanese White rabbit (2.5 to 3 kg) was anesthetized to death with Nembutal™ and then the abdomen was incised. Immediately thereafter, the stomach was removed and, after its pyloric and cardiac antrum were severed, incised along its greater curvature into two sheets. The gastric contents adhering to the mucosal surface was washed out with ice-cooled PBS (-) and then carefully washed therein. The gastric wall was spread on a cork board with its mucosal surface facing up and the feed and mucus thereon were completely removed with sterile gauze. The mucosa was separated therefrom by a spatula and then collected in ice-cooled PBS (-). After being washed twice with PBS (-), the mucosa was minced into 2-3 mm^3 pieces by scissors. These pieces were further washed twice with a nutrient solution. The nutrient solution comprises 132.4 mM of NaCl, 5.4 mM of KCl, 5 mM of Na2 HPO4. 12H2 O, 1 mM of NaH2 PO4.2H2 O, 1.2 mM of MgSO4, 1 mM of CaCl2, 25 mM of HEPES, 2 mg/ml of glucose, and 1 mg/ml of BSA.
Into 70 ml of the nutrient solution containing 1 mg/ml of collagenase, minced mucosal pieces were dispersed and intensely stirred in a conical flask with a stirrer at 37° C. for 40 to 60 minutes. During this period, 100% O2 was sprayed on the nutrient solution surface and the pH was appropriately measured such that it was immediately adjusted to pH 7.4, when the value was therebelow, with a base. The nutrient solution was added to the reaction solution so as to attain the total amount of about 200 ml. After being filtered through a mesh, the suspension was divisionally introduced into 50 ml centrifuge tubes and left for 15 minutes such that gastric fundic gland was deposited. The supernatant was repeatedly removed by an aspirator, dispersed in the nutrient solution, and then left such that the gastric fundic gland was washed three times. At this time, without using a pipette, the suspension was alternately introduced into two centrifuge tubes so as to effect dispersion. The number of cells was counted under microscope and adjusted to 1.6×10^6 cells/ml.
Then, [^14 C]-aminopyrine uptake test was performed. After an Eppendorf tube was weighed, 10 μl (final concentration: 10^-5 M) of histamine dissolved in the above-mentioned nutrient solution, 10 μl (final concentration: […]) of the test compound dissolved in DMSO, and 10 μl (final concentration: 0.05 μCi/ml) of [^14 C]-aminopyrine diluted with the nutrient solution were introduced therein and then 970 μl of the isolated gastric fundic gland suspension prepared above was added thereto. Subsequently, this mixture was shaken at 37° C. for 40 minutes at 125 cycles/minute. After being centrifuged for 30 seconds, 200 μl of its supernatant was collected into a mini-vial, while the rest was removed by an aspirator. The gland pellet was completely dried as the tube with its lid being opened was kept for one night in a drying oven at 80° C. and then the lid was closed and the weight was determined at room temperature. Then 100 μl of 1N KOH was added thereto and the tube with its lid being closed was treated at 60° C. for 1 to 2 hours so as to dissolve the pellet. Then, the contents thereof were transferred to a mini-vial. Into the mini-vial containing the supernatant or gland pellet, 4 ml of Atomlite™ was added and then the radioactivity was measured by a liquid scintillation counter. Here, after the radioactivity of the gland pellet was corrected by using a sample in which 20 mM of NaSCN was added so as to cancel the hydrogen ion concentration gradient, the integration ratio of aminopyrine specifically trapped by the gland pellet was calculated. This experiment was performed in duplicate.
Here, its principle will be briefly explained. […]

SMILES	inhibition at 10 µM [%]
CC(C)=CCC/C(C)=C/COc1ccc(C(=O)NCCN(C(C)C)C(C)C)cc1 [Example 7]	100
CCN(CC)CCNC(=O)c1ccc(OC/C=C(\C)CCC=C(C)C)c(OC)c1 [Example 30]	100
CC(C)N(CCNC(=O)c1cccc(CN2CCCCC2)c1)C(C)C [Example 66]	38.3
CC(C)N(CCNC(=O)c1ccc(NC(=O)C(C)(C)C)cc1)C(C)C [Example 69]	31.5

system: mice; test: not given; parameters: species or system mouse (male Slc:ICR); conditions: mouse, in vivo
Description: AT: Single Dose Toxicity Pretest
Male Slc:ICR mice (5-week-old) were used. Each group has 3 to 5 mice and each mouse was fasted, but allowed free access to water, for 4 to 5 hours from 9 a.m. in the test day. Then, 2,000 mg/10 ml/kg of the sample compound dissolved or suspended in an aqueous solution of 0.5% sodium carboxymethyl cellulose was orally administered thereto. To a control, only the vehicle was administered. […] The body weight was measured before and after the fasting as well as at the same time everyday. The dead animals were immediately subjected to autopsy and their organs were observed by naked eyes. Also, the living animals were sacrificed with ether or carbon dioxide one week after the administration and then their organs were observed by naked eyes.
The toxicity at the single dose of 2,000 mg/kg of the sample compound was expressed as being classified into 5 levels.
5: mortality rate is 0%; no toxicity is found at all both in behavior and organs.
4: Mortality rate is 0%; while no toxicity is found in organs, slight toxicity is observed in behavior or body weight increase.
3: While there is a dead animal (though not all the animals are dead), no toxicity is found in organs.
2: Regardless of whether there is a dead animal or not, toxicity is found in organs.
1: All the animals are dead.

SMILES	AT: single dose toxicity level
CC(C)=CCC/C(C)=C/COc1ccc(C(=O)NCCN(C(C)C)C(C)C)cc1 [Example 7]	5
CCN(CC)CCNC(=O)c1ccc(OC/C=C(\C)CCC=C(C)C)c(OC)c1 [Example 30]	5
CCN(CC)CCNC(=O)c1cc(OC)c(OC)c(OC/C=C(\C)CCC=C(C)C)c1 [Example 39]	4
CCN(CC)CCNC(=O)c1ccc(OCC=C(C)C)nc1 [Example 46]	3
CC(C)=CCOc1ccc(C(=O)NCCN(C(C)C)C(C)C)cn1 [Example 48]	3

system: Helicobacter pyroli (HP NCTC 11637); test: AHP: Antibacterial Activity Test Against Helicobacter pyroli (agar dilution); type: cell-based, Helicobacter pyroli NCTC 11637; conditions: MIC 100 μg/ml or more; colony number vs control plate, 250 mM solution of sample compound
Description: AHP: Antibacterial Activity Test Against Helicobacter pyroli The minimum inhibitory concentration (MIC) against Helicobacter pyroli (microacrophilic gram-negative bacterium which is supposed to deeply involve in pathogenesis, relapse, and recrudescence of ulcer, referred to as "HP" in the following) is measured so as to find out compounds which have antibacterial activity against Helicobacter pyroli. MICs were determined by the agar dilution method. The stock culture (-80° C.) of HP NCTC 11637 was thawed and cultured on tripticase soy agar supplemented with 5% sheep blood at 37° C. in an atmosphere of 5% O2, 10% CO2, and 85% N2. Grown colonies were transferred to the same plate and precultured for 3 days under the same condition. […] An appropriate amount of the colony grown on the plate by preculturing was suspended in Mueller Hinton broth till turbidness was recognizable by naked eyes, thereby yielding a bacterial suspension concentrate containing about 10^7 cfu/ml. […] 10 μl of the bacterial suspension for inoculation (about 10^3 cfu) was dropped by dispenser onto an MIC plate for inoculation and cultured for 7 days under the same condition as that of preculture. Thereafter, it was judged whether there had been bacteria growth or not. […] As the result of the comparison of these plates, when the number of the colony on the plate containing the sample compound was less than 90% with respect to that on the control plate, it was represented by "+". Contrary to this, when there was 90% or more, it was represented by "-".

SMILES	AHP: growth class where MIC was 100 μg/ml or more
CC(C)=CCC/C(C)=C/COc1ccc(C(=O)NCCN(C(C)C)C(C)C)cc1 [Example 7]	+ (the number of the colony on the plate containing the sample compound was less than 90% with respect to that on the control plate)

system: stress ulcer formation in rats; test: WIS: Restraint and Water Immersion Stress-Induced Ulcer Inhibition Test; type: in vivo, rat (male Crj:SD or Slc:SD); conditions: 100 mg/kg oral, 10 minutes before 7 h restraint and water immersion (21° C.)
Description: WIS: Restraint and Water Immersion Stress-Induced Ulcer Inhibition Test
The degree of inhibition of the stress ulcer formation is tested.
Male Crj:SD or Slc:SD rats (6 to 7-week-old) were fasted overnight, but allowed free access to water. Each group has 5 to 8 of these rats. The sample compound was dissolved or suspended in an aqueous solution of 0.3% sodium carboxymethylcellulose or 0.05% Tween 80 and then was orally administered (100 mg/10 ml/kg). To a control group, the vehicle was administered. 10 minutes later, the rats were placed in a stress cage and immersed to the level of xipfoid process in a water bath (21° C.) for 7 hours. At the end of the stress, the rats were sacrificed by inhalation of ether or carbon dioxide. Then, the stomach of each was removed, inflated by injecting 10 ml of 5% formalin neutral buffer solution, and immersed in 1% formalin neutral buffer solution for 30 minutes or more to be fixed. The stomach was incised along the greater curvature and then the length of each erosion in the glandular portion was determined under dissecting microscope. The sum of the length of erosions per stomach was defined as ulcer index (UI).
The effect obtained when 100 mg/kg of the sample compound had been administered was expressed as ulcer formation inhibitory rate (%) as follows:
ulcer formation inhibitory rate (%)=(1-(UI in sample group/UI in control

SMILES	WIS: ulcer formation inhibitory rate [%]
CC(C)=CCC/C(C)=C/COc1ccc(C(=O)NCCN(C(C)C)C(C)C)cc1 [Example 7]	84
CCN(CC)CCNC(=O)c1ccc(OC/C=C(\C)CCC=C(C)C)c(OC)c1 [Example 30]	84
CCN(CC)CCNC(=O)c1cc(OC)c(OC)c(OC/C=C(\C)CCC=C(C)C)c1 [Example 39]	87
CCN(CC)CCNC(=O)c1ccc(OCC=C(C)C)nc1 [Example 46]	65
CC(C)=CCOc1ccc(C(=O)NCCN(C(C)C)C(C)C)cn1 [Example 48]	75
CC(C)N(CCNC(=O)c1cccc(CN2CCCCC2)c1)C(C)C [Example 66]	53
CC(C)N(CCNC(=O)c1ccc(NC(=O)C(C)(C)C)cc1)C(C)C [Example 69]	95
